Data set [1] relates to human cervical carcinoma (HeLa) cells. Description: MTT cell viability assay in HeLa cells with or without 450 nm irradiation. It counts as cell-based. The settings on record: for HeLa cell viability, no irradiation: absence of light; for IC50: read-out: IC50 (error). The procedure: For cell culture, human cervical carcinoma (HeLa) cells were obtained from the ATCC. The cells were cultured at 37° C. in a 5% CO2, humidified atmosphere in Dulbecco's Modified Eagle Medium (DMEM) supplemented with 10% fetal bovine serum, 100 U/mL penicillin, and 100 μg/ml streptomycin (Invitrogen). Assays were accomplished by seeding cells at a density of 5,000 cells/well in a 96-well plate and incubated at 37° C. overnight. Media was exchanged and then cells were treated with either 100 μM [Ru(bpy)2(66′bpy(OH)2)]^2+, [Ru(bpy)2(44′bpy(OH)2)]^2+, or [Ru(bpy)3]^2+ for 48 h. The medium containing compounds was discarded, cells were washed, and fresh Hank's Balanced Salt Solution was added. In the dark, cells were irradiated using a 450 nm light emitting diode (LED) flashlight positioned 4 cm from the plate for 1 h. The salt solution was exchanged with media and cells were allowed to grow for 24 h. Media containing 20 μL of 3-(4,5-dimethylthiazol-2-yl)-[…] bromide (MTT) (5 mg/mL) was added to each well and incubated for an additional 3 h. The medium was removed. After adding 200 μL of DMSO to each well, the optical densities at 570 nm were determined The p-values were calculated from triplicate data sets using KaleidaGraph software.
Upon irradiation the [Ru(bpy)2(66′bpy(OH)2)]^2+ prodrug can be converted into a cytotoxic agent while in a cell. For example, HeLa cells were plated, incubated with [Ru(bpy)2(66′bpy(OH)2)]^2+, irradiated, and an MTT cell viability assay was used to assess cellular viability. […] The average viability dropped to 93+/−6%. The change is not statistically significant with p greater than 0.05. Similar results were obtained when cells were not treated with the agent and only irradiated for one hour. The viability dropped to 88+/−9%. […] When [Ru(bpy)2(66′bpy(OH)2)]^2+ was incubated with HeLa cells and irradiated the viability dropped to 47+/−12%. This is a statistically significant drop with p less than 0.004 and 0.02 for no ruthenium-complex and no irradiation respectively. Further experiments changing the concentration of [Ru(bpy)2(66′bpy(OH)2)]^2+ in HeLa cells under irradiation can allow for measurement of an inhibitory concentration (IC50). The IC50 for anti-cancer activity is given in Table 1, which are consistent with the data in FIG. 3.
(Tetrazolium assays rely on reduction of a dye to a coloured formazan, in cell work by metabolically active cells.)

Data set [2] is described as follows: Kinetics of light-induced ligand photo-dissociation monitored by UV/visible spectroscopy. It counts as physicochemical. The settings on record: for rate of photodecomposition / ligand loss: pH 7.5 in water. The source says: The rate of ligand loss from [Ru(bpy)2(66′bpy(OH)2)]^2+ to give the active anti-cancer agent ([Ru(bpy)2(solvent)2]^2+) can depend greatly on pH and the solvent composition. At pH 5 in aqueous solution, [Ru(bpy)2(66′bpy(OH)2)]^2+ undergoes blue light induced ligand loss which was monitored by UV/visible spectroscopy over one hour (graph (a) in FIG. 8). At this pH, which is below pKa1 and pKa2, the dihydroxybipyridine ligand should be in its native (protonated) state and should correspond to weaker Ru—N bonds (cf. deprotonated ligand), due to a less electron rich ligand as corroborated by crystallographic and computational results described herein. […] This A→B process is consistent with the clean isosbestic point observed, and furthermore, a first or second order process can be ruled out due to non-linear (curved) plots for these rate laws (see supplementary materials).
At this pH, which is above pKa1 and pKa2, the 6,6′-dihydroxybipyridine ligand should be fully deprotonated, which corresponds to stronger Ru—N bonds. Slight fluctuations in the absorbance values can be attributed to noise, and at this pH the rate of photodecomposition appears to be zero. Thus, the deprotonated, more strongly donating ligand appears to block photodecomposition. Thus, this establishes the framework for how a metal-based prodrug can be selectively activated in cancer cells, which have a lower pH as compared to normal cells.
Studies in acetonitrile were done to monitor the process that gave rise to ([Ru(bpy)2(CH3CN)2]^2+) and investigate the influence of solvent on the rates. […] In contrast, upon irradiation with blue light (450 nm), [Ru(bpy)2(66′bpy(OH)2)]^2+ in acetonitrile undergoes decomposition to give [Ru(bpy)2(CH3CN)2)]^2+ and the free ligand, 66′bpy(OH)2 (λmax=343 nm, 421 nm). These products have been prepared independently and their spectra are consistent with those shown for the final result of photodecomposition (graph (c) in FIG. 8). The observed zero order rate constant, kobs=2.6×10^−7 M/s, was determined by fitting an A→B process at 457 nm. The large changes in light absorption show a clean isosbestic point at λ=422 nm and is consistent with an A→B process. Furthermore, the light induced loss of a ligand is consistent with a zero order process that is independent of concentration. The observed rate constant, kobs=2.6(1)×10^−7 M/s, reflects that photodecomposition is nearly complete (87%) in 5 minutes, and it is entirely complete within 20 minutes, graph (c) in FIG. 8. Thus, the reaction proceeds 15 times more quickly in acetonitrile vs. pH 5 aqueous media. This could be attributed to decreased back reaction in acetonitrile, or enhanced stability of the product ligand in acetonitrile since it is better solvated. The product complex is analogous to the likely product of photodecomposition in vivo, namely [Ru(bpy)2(H2O)2)]^2+.

Data set [3] can be described thus: pH titration by UV/visible absorbance in aqueous buffers (pKa). In kind it is physicochemical. The settings on record: aqueous buffers pH 1 to 13, 25° C. As for the experimental part:
^1H-NMR spectra were collected on a Varian 300 MHz Fourier Transform spectrometer in deuterated acetonitrile (CD3CN) Infrared spectra were obtained on a Perkin Elmer Spectrum One FT-IR with Universal ATR sampling accessory. UV-visible absorption spectra were collected on a Scinco S-3100 diode-array spectrophotometer at a resolution of 1 nm. Luminescence data was collected on a Horiba Jobin Yvon Fluoromax 3. pH measurements were performed using a VWR SympHony pH meter, utilizing a three point calibration at pH=4.0, 7.0, and 10.0.
UV/visible absorbance data was collected for [Ru(bpy)2(66′bpy(OH)2)]^2+ in aqueous buffers ranging from pH=1 to pH=13, FIG. 6. The deprotonated form of [Ru(bpy)2(66′bpy(OH)2)]^2+ is red shifted compared to the protonated form of the complex. The pH titration data can show two distinct events that yielded a pKa1=5.26 and pKa2=7.27.

Setting [4] is: 100 μM complex for 48 h, untreated non-irradiated cells = 100%.
The mark [5] stands for this setting: HeLa cells under irradiation (450 nm, 1 h), MTT.

Several values for one entry are separate records, joined by “and”; a condition that tells them apart may be missing. Equal entries are not always repeated. Some results are limits rather than exact numbers.

`[Cl][Ru][Cl].c1ccc(-c2ccccn2)nc1.c1ccc(-c2ccccn2)nc1.c1ccc(-c2ccccn2)nc1` [[Ru(bpy)3]^2+, [Ru(bpy)3][Cl]2]: the “HeLa cell viability, no irradiation” value in data set [1] (setting [4]) is given as 91+/−4%. For the same molecule, the half-maximal inhibitory concentration (IC50) in data set [1] (setting [5]) amounted to 152 µM.
Turning to `F[P-](F)(F)(F)(F)F.F[P-](F)(F)(F)(F)F.Oc1ccnc(-c2cc(O)ccn2)c1.[Ru+2].c1ccc(-c2ccccn2)nc1.c1ccc(-c2ccccn2)nc1` [[Ru(bpy)2(44′bpy(OH)2)]^2+, [Ru(bpy)2(44′bpy(OH)2)][PF6]2], the photo-dissociation of ligand entry in data set [2] (blue light) is “no photo-dissociation”. Further, the “HeLa cell viability, no irradiation” value in data set [1] (setting [4]) was 91+/−4%. Besides, in data set [1] (setting [5]), the “IC50 (error)” value was “no significant effects” and the IC50 was more than 100 µM.
For the molecule `F[P-](F)(F)(F)(F)F.F[P-](F)(F)(F)(F)F.O.Oc1cccc(-c2cccc(O)n2)n1.[Ru+2].c1ccc(-c2ccccn2)nc1.c1ccc(-c2ccccn2)nc1` [[Ru(bpy)2(66′bpy(OH)2)]^2+, [Ru(bpy)2(66′bpy(OH)2)][PF6]2.H2O], in data set [2] (450 nm blue light), the “rate in acetonitrile vs. pH 5 aqueous media” value is 15 times and the “rate of photodecomposition / ligand loss” value is “no measurable photodecomposition”. Further, the “time to entirely complete photodecomposition” value in data set [2] (acetonitrile, 450 nm blue light) is not above 20 min. In addition, the extent of photodecomposition in data set [2] (acetonitrile, 450 nm blue light, 5 minutes) was found to be 87%. Moreover, in data set [2] (acetonitrile, 450 nm blue light, followed at 457 nm), the “kobs, zero order rate constant of photodecomposition” value is reported as 2.6(1)×10^−7 M/s. Also, the “kobs, zero order rate constant of blue light induced ligand loss” value in data set [2] (pH 5 aqueous solution, 450 nm blue light, initial rate 0-300 s, followed at 461 nm) was 1.7(2)×10^−8 M/s. In addition, in data set [2] (pH 5 in water, blue light), the ligand dissociation result was “readily dissociates”. Besides, the “rate of photodecomposition / ligand loss” value in data set [2] (450 nm blue light, listed as [Ru(bpy)2(66′bpy(OH)2)2)]^2+) is reported as “zero”. Besides, the “stability in acetonitrile solution” value in data set [2] (protected from light or exposed to 720 nm red light) is “stable”. Besides, in data set [1] (100 μM complex for 48 h, then 450 nm irradiation for 1 h, untreated non-irradiated cells = 100%), the “HeLa cell viability, with irradiation” value was 47+/−12% and 47%. In data set [1] (setting [5]), the IC50 was determined as 88 µM. In data set [3], this molecule showed a pKa1 of 5.26 and a pKa2 of 7.27.

The IC50 is the midpoint of a concentration-inhibition curve.

The values are drawn from patent US20160101177A1, “pH AND LIGHT ACTIVATED ANTI-CANCER DRUGS” (The Board of Trustees of the University of Alabama, priority 2014, published 2016).
